Experimental data as given in ChEMBL document CHEMBL4354855 (J Med Chem, 2020).
Blank lines part the entries; values can stand above or below the compound they belong to.

Assays:
[1] = Oral bioavailability in OFA-1 rat at 10 mg/kg; format: ADME, organism-based; settings: in vivo
[2] = Drug level in OFA-1 rat blood at 10 mg/kg, po measured after 5 hrs; format: ADME, organism-based; settings: whole blood, read-out: Drug uptake
[3] = Intrinsic clearance in rat liver microsomes; format: ADME, Microsome; settings: read-out: CLH
[4] = Stability of the compound in GSH assessed as parent compound remaining measured after 24 hrs; format: physicochemical; settings: GSH (glutathione); read-out: Stability
[5] = Half life in human plasma; format: ADME, cell-free
[6] = Drug level in OFA-1 rat blood at 3 mg/kg, po measured after 5 hrs; format: ADME, organism-based; settings: whole blood, read-out: Drug uptake
[7] = Lipophilicity, log P of the compound; format: physicochemical; settings: octanol/water
[8] = Drug level in OFA-1 rat at 1 mg/kg, po measured after 5 hrs; format: ADME, organism-based; settings: in vivo, read-out: Drug uptake
[9] = Half life in Beagle dog at 1 mg/kg, iv or 3 mg/kg, po; format: ADME, organism-based, Canis lupus familiaris; settings: in vivo
[10] = Drug level in OFA-1 rat at 1 mg/kg, po measured after 0.5 hrs; format: ADME, organism-based; settings: in vivo, read-out: Drug uptake
[11] = Volume of distribution at steady state in Beagle dog at 1 mg/kg, iv or 3 mg/kg, po; format: ADME, organism-based, Canis lupus familiaris; settings: in vivo, read-out: Vdss
[12] = Dose normalized Cmax in C57BL/6 mouse at 1 mg/kg, iv or 3 mg/kg, po; format: ADME, organism-based; settings: in vivo
[13] = Dose normalized AUC in Lewis rat at 3 mg/kg, po; format: ADME, organism-based; settings: in vivo
[14] = Clearance in C57BL/6 mouse at 1 mg/kg, iv or 3 mg/kg, po; format: ADME, organism-based; settings: in vivo
[15] = Thermodynamic solubility of the compound at pH 6.8; format: physicochemical; settings: buffer, read-out: Therm_solubility
[16] = Volume of distribution at steady state in C57BL/6 mouse at 1 mg/kg, iv or 3 mg/kg, po; format: ADME, organism-based; settings: in vivo, read-out: Vdss
[17] = Half life in Lewis rat at 1 mg/kg, iv or 3 mg/kg, po; format: ADME, organism-based; settings: in vivo
[18] = Tmax in C57BL/6 mouse at 1 mg/kg, iv or 3 mg/kg, po; format: ADME, organism-based; settings: in vivo
[19] = Dose normalized AUC in Beagle dog at 3 mg/kg, po; format: ADME, organism-based, Canis lupus familiaris; settings: in vivo
[20] = Half life in C57BL/6 mouse at 1 mg/kg, iv or 3 mg/kg, po; format: ADME, organism-based; settings: in vivo
[21] = Tmax in Lewis rat at 1 mg/kg, iv or 3 mg/kg, po; format: ADME, organism-based; settings: in vivo
[22] = Oral bioavailability in Lewis rat at 3 mg/kg; format: ADME, organism-based; settings: in vivo
[23] = Oral bioavailability in Beagle dog at 3 mg/kg; format: ADME, organism-based, Canis lupus familiaris; settings: in vivo
[24] = Dose normalized AUC in C57BL/6 mouse at 3 mg/kg, po; format: ADME, organism-based; settings: in vivo
[25] = Dose normalized Cmax in Lewis rat at 1 mg/kg, iv or 3 mg/kg, po; format: ADME, organism-based; settings: in vivo
[26] = Intrinsic clearance in mouse liver microsomes; format: ADME, Microsome; settings: read-out: CLH
[27] = Intrinsic clearance in dog liver microsomes; format: ADME, Canis lupus familiaris, Microsome; settings: read-out: CLH
[28] = Oral bioavailability in C57BL/6 mouse at 3 mg/kg; format: ADME, organism-based; settings: in vivo
[29] = Clearance in Beagle dog at 1 mg/kg, iv or 3 mg/kg, po; format: ADME, organism-based, Canis lupus familiaris; settings: in vivo
[30] = Dose normalized Cmax in Beagle dog at 1 mg/kg, iv or 3 mg/kg, po; format: ADME, organism-based, Canis lupus familiaris; settings: in vivo
[31] = Thermodynamic solubility of the compound at pH 1; format: physicochemical; settings: buffer, read-out: Therm_solubility
[32] = Volume of distribution at steady state in Lewis rat at 1 mg/kg, iv or 3 mg/kg, po; format: ADME, organism-based; settings: in vivo, read-out: Vdss
[33] = Tmax in Beagle dog at 1 mg/kg, iv or 3 mg/kg, po; format: ADME, organism-based, Canis lupus familiaris; settings: in vivo
[34] = Clearance in Lewis rat at 1 mg/kg, iv or 3 mg/kg, po; format: ADME, organism-based; settings: in vivo
[35] = Clearance in OFA-1 rat at 3 mg/kg, po; format: ADME, organism-based; settings: in vivo

Compound: C=CC(=O)N1CC(Oc2c(N)ncnc2-c2cc(F)cc(NC(=O)c3ccc(C4CC4)cc3)c2C)C1
bioavailability [1]: 5%
concentration at 5 h [2]: 13 nM
microsomal CLint [3]: 25 µL/min/mg

Compound: C=CC(=O)N(C)C/C=C/c1c(N)ncnc1-c1cc(F)cc(NC(=O)c2ccc(C3CC3)cc2)c1C
microsomal CLint [3]: 924 µL/min/mg

Compound: C=CC(=O)N1CCC(Oc2c(N)ncnc2-c2cc(F)cc(NC(=O)c3ccc(C4CC4)cc3F)c2C)CC1
half-life [5]: > 120 min
concentration at 5 h [6]: 207 nM

Compound: C=CC(=O)N(C)CC/C=C/c1c(N)ncnc1-c1cc(F)cc(NC(=O)c2ccc(C3CC3)cc2)c1C
microsomal CLint [3]: 815 µL/min/mg

Compound: C=CC(=O)N1CCC(Oc2c(N)ncnc2-c2cc(F)cc(NC(=O)c3ccc(C4CC4)cc3)c2C)C1 (stereo not drawn)
microsomal CLint [3]: 135 µL/min/mg

Compound: C=CC(=O)N1CCC[C@H]1COc1c(N)ncnc1-c1cc(F)cc(NC(=O)c2ccc(C3CC3)cc2F)c1C
half-life [5]: > 120 min

Compound: C=CC(=O)N1CC(Oc2c(N)ncnc2-c2cc(F)cc(NC(=O)c3ccc(C4CC4)cc3F)c2C)C1
bioavailability [1]: 51%
half-life [5]: 35 min

Compound: C=CC(=O)N(C)C/C=C/c1c(N)ncnc1-c1cc(F)cc(NC(=O)c2ccc(C3CC3)cc2F)c1C
half-life [5]: > 120 min
CL/F [35]: 307 mL/min/kg

The remaining lines, values ahead:

remaining at 24 h [4]: 79.6%
Compound: CC#CC(=O)N(C)CCOc1c(N)ncnc1-c1cc(F)cc(NC(=O)c2ccc(C3CC3)cc2F)c1C

half-life [5]: > 120 min
logP [7]: 3.6
Compound: C=CC(=O)N(CC)CCOc1c(N)ncnc1-c1cc(F)cc(NC(=O)c2ccc(C3CC3)cc2F)c1C

remaining at 24 h [4]: 95.8%
Compound: C/C=C/C(=O)N(C)CCOc1c(N)ncnc1-c1cc(F)cc(NC(=O)c2ccc(C3CC3)cc2F)c1C

remaining at 24 h [4]: 60.8%
Compound: Cc1c(NC(=O)c2ccc(C3CC3)cc2F)cc(F)cc1-c1ncnc(N)c1OCCN(C)C(=O)/C=C/CN(C)C

concentration at 5 h [8]: 5.6 nM
half-life [5]: > 120 min
half-life [9]: 54 min
concentration at 0.5 h [10]: 49.1 nM
Vd [11]: 1 L/kg
logP [7]: 2.9
Cmax/dose [12]: 53 nM
AUC/dose [13]: 225 nM·h
clearance [14]: 97 mL/min/kg
solubility thermodynamic [15]: < 3 µg/mL
Vd [16]: 1 L/kg
half-life [17]: 30 min
remaining at 24 h [4]: 68.5%
Tmax [18]: 18 min
microsomal CLint [3]: 33 µL/min/mg
AUC/dose [19]: 55 nM·h
half-life [20]: 60 min
Tmax [21]: 18 min
bioavailability [22]: 29%
bioavailability [23]: 5%
AUC/dose [24]: 54 nM·h
Cmax/dose [25]: 148 nM
microsomal CLint [26]: 325 µL/min/mg
microsomal CLint [27]: 146 µL/min/mg
bioavailability [28]: 16%
clearance [29]: 29 mL/min/kg
Cmax/dose [30]: 19 nM
solubility thermodynamic [31]: > 1500 µg/mL
Vd [32]: 1.4 L/kg
Tmax [33]: 48 min
clearance [34]: 44 mL/min/kg
Compound: C=CC(=O)N(C)CCOc1c(N)ncnc1-c1cc(F)cc(NC(=O)c2ccc(C3CC3)cc2F)c1C [REMIBRUTINIB]

half-life [5]: 96 min
remaining at 24 h [4]: 0.1%
Compound: C#CC(=O)N(C)CCOc1c(N)ncnc1-c1cc(F)cc(NC(=O)c2ccc(C3CC3)cc2F)c1C

half-life [5]: 42 min
Compound: C=CC(=O)N1CC[C@H]1COc1c(N)ncnc1-c1cc(F)cc(NC(=O)c2ccc(C3CC3)cc2F)c1C

half-life [5]: > 120 min
Compound: C=CC(=O)NCCOc1c(N)ncnc1-c1cc(F)cc(NC(=O)c2ccc(C3CC3)cc2F)c1C
